Measured values reported in DBAASP.
Values after ≈ are worked out from the molar mass of the structure shown.

Legend:
Test in all cases: ≥ marks a high value that may be exact or a test limit, other limits are often not marked, values filed in µg/mL are converted to µM
[1] = system: Pseudomonas aeruginosa H1001
Escherichia coli K88 = system: Escherichia coli K88
[2] = system: Escherichia coli O157:H7 CICC 21530
[3] = system: Lacticaseibacillus rhamnosus 1.0911
[4] = system: Lacticaseibacillus rhamnosus 1.0936
[5] = system: Lacticaseibacillus rhamnosus 1.9021
[6] = system: Lacticaseibacillus rhamnosus 8014
[7] = system: Pseudomonas aeruginosa ATCC 27853
[8] = system: Pseudomonas aeruginosa PAO1
[9] = system: Salmonella enterica subsp. enterica serovar Choleraesuis CVCC 503
[10] = system: Salmonella enterica subsp. enterica serovar Pullorum C79-13
[11] = system: Salmonella enterica subsp. enterica serovar Typhimurium ATCC 14028
[12] = system: Staphylococcus aureus ATCC 29213
[13] = system: Staphylococcus aureus ATCC 43300
[14] = system: Staphylococcus epidermidis ATCC 12228
[15] = system: Streptococcus agalactiae BNCC 185941
Candida albicans = system: Candida albicans
[16] = system: Corynebacterium jeikeium ATCC BAA-949
Pseudomonas aeruginosa 1 = system: Pseudomonas aeruginosa 1
Pseudomonas aeruginosa 2 = system: Pseudomonas aeruginosa 2
[17] = system: Pseudomonas aeruginosa ATCC 15692
Pseudomonas aeruginosa = system: Pseudomonas aeruginosa

Row | SMILES | MIC [1] [µM] | MIC (Escherichia coli K88) [µM] | MIC [2] [µM] | MIC [3] [µM] | MIC [4] [µM] | MIC [5] [µM] | MIC [6] [µM] | MIC [7] [µM] | MIC [8] [µM] | MIC [9] [µM] | MIC [10] [µM] | MIC [11] [µM] | MIC [12] [µM] | MIC [13] [µM] | MIC [14] [µM] | MIC [15] [µM] | also measured
1 | CC[C@H](C)[C@H](NC(=O)[C@H](C)NC(=O)[C@H](CC(N)=O)NC(=O)[C@@H](N)CCSC)C(=O)N[C@@H](CCCCN)C(=O)N[C@@H](CC(C)C)C(=O)N[C@@H](CC(C)C)C(=O)N[C@@H](CS)C(=O)N[C@@H](CCCN=C(N)N)C(=O)N[C@H](C(=O)O)C(C)C [MNAIKLLCRV] | 21.5 (≈ 25 µg/mL) | – | – | – | – | – | – | – | – | – | – | – | – | – | – | – | –
2 | CC(C)C[C@H](NC(=O)CNC(=O)[C@H](CC(C)C)NC(=O)[C@H](Cc1c[nH]c2ccccc12)NC(=O)[C@H](CC(C)C)NC(=O)CNC(=O)[C@H](CC(C)C)NC(=O)[C@H](CCCCN)NC(=O)[C@H](CCCCN)NC(=O)CN)C(=O)N[C@@H](CCCCN)C(=O)N[C@@H](CCCCN)C(=O)NCC(N)=O [GKKLGLWLGLKKG] | – | 4 (≈ 5.59 µg/mL) | 8 (≈ 11.2 µg/mL) | ≥ 128 | ≥ 128 | ≥ 128 | ≥ 128 | 16 (≈ 22.3 µg/mL) | 32 (≈ 44.7 µg/mL) | ≥ 32 | 16 (≈ 22.3 µg/mL) | 32 (≈ 44.7 µg/mL) | > 128 | > 128 | > 128 | ≥ 128 | –
3 | CC(C)C[C@H](NC(=O)CNC(=O)[C@H](CCCCN)NC(=O)[C@H](CC(C)C)NC(=O)[C@H](CC(C)C)NC(=O)[C@H](CCCCN)NC(=O)[C@@H](N)CCCCN)C(=O)N[C@@H](CC(C)C)C(=O)N[C@@H](CCCCN)C(=O)NCC(=O)N[C@@H](Cc1c[nH]c2ccccc12)C(N)=O [KKLLKGLLKGW] | – | 16 (≈ 20.5 µg/mL) | ≥ 64 | ≥ 128 | ≥ 128 | ≥ 128 | ≥ 128 | 32 (≈ 41 µg/mL) | 64 (≈ 82.1 µg/mL) | ≥ 64 | ≥ 32 | 32 (≈ 41 µg/mL) | > 128 | > 128 | > 128 | ≥ 128 | –
4 | CC[C@H](C)[C@H](NC(=O)CN)C(=O)N[C@@H](Cc1ccccc1)C(=O)N[C@@H](CO)C(=O)N[C@@H](CCCCN)C(=O)N[C@@H](CC(C)C)C(=O)N[C@@H](C)C(=O)NCC(=O)N[C@@H](CCCCN)C(=O)N[C@@H](CCCCN)C(=O)N[C@@H](CC(C)C)C(=O)N[C@@H](CCCCN)C(=O)N[C@@H](CC(N)=O)C(=O)N[C@@H](CC(C)C)C(=O)N[C@@H](CC(C)C)C(=O)N[C@H](C(=O)N[C@@H](CO)C(=O)NCC(N)=O)[C@@H](C)CC [GIFSKLAGKKLKNLLISG] | – | – | – | – | – | – | – | 8 (≈ 15.1 µg/mL) | 8 (≈ 15.1 µg/mL) | – | – | – | – | – | – | – | MIC (Candida albicans): 2.83 µM (≈ 5.34 µg/mL); MIC [16]: 4 µM (≈ 7.55 µg/mL); MIC (Pseudomonas aeruginosa 1): 8 µM (≈ 15.1 µg/mL); MIC (Pseudomonas aeruginosa 2): 16 µM (≈ 30.2 µg/mL); MIC [17]: 8 µM (≈ 15.1 µg/mL); MIC (Pseudomonas aeruginosa): 8 µM (≈ 15.1 µg/mL)
5 | CC[C@H](C)[C@H](NC(=O)[C@H](CCCN=C(N)N)NC(=O)[C@H](CCCN=C(N)N)NC(=O)[C@@H]1CCCN1C(=O)[C@@H]1CCCN1C(=O)[C@H](CCCN=C(N)N)NC(=O)[C@@H]1CCCN1C(=O)[C@H](CCCN=C(N)N)NC(=O)[C@@H]1CCCN1C(=O)[C@H](CC(C)C)NC(=O)[C@H](Cc1ccc(O)cc1)NC(=O)[C@@H]1CCCN1C(=O)[C@@H]1CCCN1C(=O)[C@H](CCCCN)NC(=O)[C@H](CC(=O)O)NC(=O)[C@@H](N)C(C)C)C(=O)N[C@@H](Cc1ccc(O)cc1)C(=O)N[C@@H](Cc1ccc(O)cc1)C(=O)N[C@@H](CCCN=C(N)N)C(=O)NCC(=O)O [VDKPPYLPRPRPPRRIYYRG] | 0.12 (≈ 0.3 µg/mL) | – | – | – | – | – | – | – | – | – | – | – | – | – | – | – | –
